Experimental data as given in ChEMBL document CHEMBL1157356, “Discovery of pyrrolopyridine-pyridone based inhibitors of Met kinase: synthesis, X-ray crystallographic analysis, and biological activities” (J Med Chem, 2008).

Columns and labels:
[1] = tested on: NCI-N87; test: Antiproliferative activity against human N87 cells after 72 hrs by MTS assay; format: functional, cell-based; conditions: NCI-N87, 72 h
[2] = target: Hepatocyte growth factor receptor (Homo sapiens, UniProt P08581); test: Inhibition of MET
Sequence of Hepatocyte growth factor receptor (P08581 whole entry): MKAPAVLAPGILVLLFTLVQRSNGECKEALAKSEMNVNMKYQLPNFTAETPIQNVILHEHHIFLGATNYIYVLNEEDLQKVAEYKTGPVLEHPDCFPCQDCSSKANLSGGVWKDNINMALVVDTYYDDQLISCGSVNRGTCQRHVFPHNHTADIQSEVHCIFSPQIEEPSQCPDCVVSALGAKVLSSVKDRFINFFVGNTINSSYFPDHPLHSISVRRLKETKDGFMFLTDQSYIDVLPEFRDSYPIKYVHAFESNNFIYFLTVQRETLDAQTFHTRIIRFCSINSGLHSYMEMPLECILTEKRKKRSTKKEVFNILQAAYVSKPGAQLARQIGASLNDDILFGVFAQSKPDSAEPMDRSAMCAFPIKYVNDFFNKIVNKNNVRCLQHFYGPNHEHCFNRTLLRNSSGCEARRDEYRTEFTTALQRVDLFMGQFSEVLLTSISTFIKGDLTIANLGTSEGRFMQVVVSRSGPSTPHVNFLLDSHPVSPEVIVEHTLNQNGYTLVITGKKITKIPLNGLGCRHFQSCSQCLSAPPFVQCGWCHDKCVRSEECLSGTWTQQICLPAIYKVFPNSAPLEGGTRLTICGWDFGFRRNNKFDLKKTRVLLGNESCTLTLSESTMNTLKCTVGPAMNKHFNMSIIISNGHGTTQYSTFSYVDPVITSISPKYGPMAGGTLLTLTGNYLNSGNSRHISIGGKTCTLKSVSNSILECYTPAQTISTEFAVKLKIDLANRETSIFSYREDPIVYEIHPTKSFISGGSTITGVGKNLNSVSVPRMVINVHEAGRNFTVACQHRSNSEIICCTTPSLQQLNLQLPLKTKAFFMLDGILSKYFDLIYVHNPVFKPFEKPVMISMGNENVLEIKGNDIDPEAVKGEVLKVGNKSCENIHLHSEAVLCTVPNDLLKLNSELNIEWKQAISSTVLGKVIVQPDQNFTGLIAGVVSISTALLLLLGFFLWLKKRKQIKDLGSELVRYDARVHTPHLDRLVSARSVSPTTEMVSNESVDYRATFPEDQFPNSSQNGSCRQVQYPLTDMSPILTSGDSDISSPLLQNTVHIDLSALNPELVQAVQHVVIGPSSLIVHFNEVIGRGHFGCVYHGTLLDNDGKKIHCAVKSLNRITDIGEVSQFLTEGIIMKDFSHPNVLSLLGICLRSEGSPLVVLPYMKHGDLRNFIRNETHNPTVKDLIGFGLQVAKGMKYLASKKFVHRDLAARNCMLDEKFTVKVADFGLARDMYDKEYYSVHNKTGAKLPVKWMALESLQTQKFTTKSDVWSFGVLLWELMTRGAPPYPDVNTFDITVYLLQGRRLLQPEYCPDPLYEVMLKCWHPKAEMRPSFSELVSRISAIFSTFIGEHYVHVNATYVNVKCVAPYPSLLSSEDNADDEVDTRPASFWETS

[3] = Antiproliferative activity against human GTL16 cells after 72 hrs by MTS assay; format: functional, cell-based; conditions: GTL 16, 72 h
[4] = Toxicity in human GTL16 cells xenografted BALB/c mouse assessed as maximum tolerated dose at 100 mg/kg, po qd administered 14 days after tumor implantation; format: organism-based; parameters: dose 100 mg/kg, route oral; conditions: in vivo
[5] = AUC (0 to 24 hrs) in BALB/c mouse at 10 mg/kg, po; format: ADME, organism-based; parameters: time < 24 hr, dose 10 mg/kg, route oral; conditions: plasma
[6] = target: Cyclin-dependent kinase 2 (Homo sapiens, UniProt P24941); test: Inhibition of CDK2/cyclin E
[7] = Half life in BALB/c mouse at 10 mg/kg, po; format: ADME, organism-based; parameters: dose 10 mg/kg, route oral; conditions: in vivo
[8] = target: Insulin receptor (Homo sapiens, UniProt P06213); test: Inhibition of InsR
Sequence of Insulin receptor (P06213 28-758 limits assumed): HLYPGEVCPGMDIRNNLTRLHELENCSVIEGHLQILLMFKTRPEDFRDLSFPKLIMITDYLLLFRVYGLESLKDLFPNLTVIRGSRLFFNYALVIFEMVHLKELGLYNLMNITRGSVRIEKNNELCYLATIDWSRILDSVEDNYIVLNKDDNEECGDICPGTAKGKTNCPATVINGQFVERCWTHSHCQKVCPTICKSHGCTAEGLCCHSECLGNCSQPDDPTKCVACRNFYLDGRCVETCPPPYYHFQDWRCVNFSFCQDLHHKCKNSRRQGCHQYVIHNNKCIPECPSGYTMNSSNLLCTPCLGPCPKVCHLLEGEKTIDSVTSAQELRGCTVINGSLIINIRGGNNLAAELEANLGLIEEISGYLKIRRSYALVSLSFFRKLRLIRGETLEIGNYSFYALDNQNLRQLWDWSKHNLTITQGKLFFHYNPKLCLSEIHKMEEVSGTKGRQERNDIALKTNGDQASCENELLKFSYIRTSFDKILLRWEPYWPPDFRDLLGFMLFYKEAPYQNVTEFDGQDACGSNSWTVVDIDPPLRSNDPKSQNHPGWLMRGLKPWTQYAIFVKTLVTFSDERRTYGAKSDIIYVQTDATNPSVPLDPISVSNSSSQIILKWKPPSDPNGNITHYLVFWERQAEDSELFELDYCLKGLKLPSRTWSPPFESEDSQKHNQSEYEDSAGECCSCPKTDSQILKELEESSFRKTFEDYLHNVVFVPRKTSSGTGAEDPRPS
Sequence of Insulin receptor (P06213 763-1382 limits assumed): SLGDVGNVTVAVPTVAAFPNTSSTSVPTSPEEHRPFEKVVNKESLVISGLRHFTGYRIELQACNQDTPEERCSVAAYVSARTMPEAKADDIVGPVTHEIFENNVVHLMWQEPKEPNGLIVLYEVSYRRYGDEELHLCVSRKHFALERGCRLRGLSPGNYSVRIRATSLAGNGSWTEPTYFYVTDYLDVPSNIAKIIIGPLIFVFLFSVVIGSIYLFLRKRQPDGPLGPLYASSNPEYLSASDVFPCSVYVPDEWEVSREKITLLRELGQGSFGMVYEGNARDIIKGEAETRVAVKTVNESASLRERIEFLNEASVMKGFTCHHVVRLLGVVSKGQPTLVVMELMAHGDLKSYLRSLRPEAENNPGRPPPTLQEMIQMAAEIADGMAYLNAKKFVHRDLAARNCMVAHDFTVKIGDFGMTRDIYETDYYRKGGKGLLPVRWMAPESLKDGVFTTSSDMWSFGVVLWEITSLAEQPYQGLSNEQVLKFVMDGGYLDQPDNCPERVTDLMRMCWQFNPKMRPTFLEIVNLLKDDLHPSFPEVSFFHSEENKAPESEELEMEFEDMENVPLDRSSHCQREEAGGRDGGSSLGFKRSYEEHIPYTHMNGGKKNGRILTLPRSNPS

[9] = target: Protein kinase C alpha type (Homo sapiens, UniProt P17252); test: Inhibition of PKCalpha
[10] = target: Mast/stem cell growth factor receptor Kit (Homo sapiens, UniProt P10721); test: Inhibition of c-Kit
Sequence of Mast/stem cell growth factor receptor Kit (P10721 whole entry): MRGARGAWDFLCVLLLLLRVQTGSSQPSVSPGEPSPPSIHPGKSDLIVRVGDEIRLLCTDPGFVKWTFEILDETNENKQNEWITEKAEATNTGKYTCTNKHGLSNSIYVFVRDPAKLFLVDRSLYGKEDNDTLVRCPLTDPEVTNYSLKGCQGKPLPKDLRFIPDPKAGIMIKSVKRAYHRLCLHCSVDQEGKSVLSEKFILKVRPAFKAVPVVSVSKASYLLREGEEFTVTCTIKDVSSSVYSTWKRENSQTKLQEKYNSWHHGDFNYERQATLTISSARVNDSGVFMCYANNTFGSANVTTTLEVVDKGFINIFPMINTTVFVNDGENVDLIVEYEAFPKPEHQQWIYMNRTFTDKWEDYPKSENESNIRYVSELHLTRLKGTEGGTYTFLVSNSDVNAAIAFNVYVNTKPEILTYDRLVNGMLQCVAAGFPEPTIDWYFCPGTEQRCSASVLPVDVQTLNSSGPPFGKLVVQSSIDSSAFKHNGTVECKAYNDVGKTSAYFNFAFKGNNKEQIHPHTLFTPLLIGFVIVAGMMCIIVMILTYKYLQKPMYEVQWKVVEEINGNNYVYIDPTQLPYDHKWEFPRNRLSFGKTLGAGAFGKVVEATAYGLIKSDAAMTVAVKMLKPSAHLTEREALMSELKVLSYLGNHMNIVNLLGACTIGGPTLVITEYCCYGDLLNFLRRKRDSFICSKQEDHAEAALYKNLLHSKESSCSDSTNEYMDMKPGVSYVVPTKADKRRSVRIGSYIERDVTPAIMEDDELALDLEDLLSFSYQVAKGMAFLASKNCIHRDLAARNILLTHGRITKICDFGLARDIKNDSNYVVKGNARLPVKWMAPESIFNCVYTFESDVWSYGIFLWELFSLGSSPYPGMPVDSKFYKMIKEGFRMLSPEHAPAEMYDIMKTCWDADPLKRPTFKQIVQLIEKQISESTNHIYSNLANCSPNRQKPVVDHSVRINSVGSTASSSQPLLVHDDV

[11] = target: T1, Receptor-type tyrosine-protein kinase FLT3 (Homo sapiens, UniProt P36888); test: Inhibition of Flt3
T1 sequence (P36888 whole entry): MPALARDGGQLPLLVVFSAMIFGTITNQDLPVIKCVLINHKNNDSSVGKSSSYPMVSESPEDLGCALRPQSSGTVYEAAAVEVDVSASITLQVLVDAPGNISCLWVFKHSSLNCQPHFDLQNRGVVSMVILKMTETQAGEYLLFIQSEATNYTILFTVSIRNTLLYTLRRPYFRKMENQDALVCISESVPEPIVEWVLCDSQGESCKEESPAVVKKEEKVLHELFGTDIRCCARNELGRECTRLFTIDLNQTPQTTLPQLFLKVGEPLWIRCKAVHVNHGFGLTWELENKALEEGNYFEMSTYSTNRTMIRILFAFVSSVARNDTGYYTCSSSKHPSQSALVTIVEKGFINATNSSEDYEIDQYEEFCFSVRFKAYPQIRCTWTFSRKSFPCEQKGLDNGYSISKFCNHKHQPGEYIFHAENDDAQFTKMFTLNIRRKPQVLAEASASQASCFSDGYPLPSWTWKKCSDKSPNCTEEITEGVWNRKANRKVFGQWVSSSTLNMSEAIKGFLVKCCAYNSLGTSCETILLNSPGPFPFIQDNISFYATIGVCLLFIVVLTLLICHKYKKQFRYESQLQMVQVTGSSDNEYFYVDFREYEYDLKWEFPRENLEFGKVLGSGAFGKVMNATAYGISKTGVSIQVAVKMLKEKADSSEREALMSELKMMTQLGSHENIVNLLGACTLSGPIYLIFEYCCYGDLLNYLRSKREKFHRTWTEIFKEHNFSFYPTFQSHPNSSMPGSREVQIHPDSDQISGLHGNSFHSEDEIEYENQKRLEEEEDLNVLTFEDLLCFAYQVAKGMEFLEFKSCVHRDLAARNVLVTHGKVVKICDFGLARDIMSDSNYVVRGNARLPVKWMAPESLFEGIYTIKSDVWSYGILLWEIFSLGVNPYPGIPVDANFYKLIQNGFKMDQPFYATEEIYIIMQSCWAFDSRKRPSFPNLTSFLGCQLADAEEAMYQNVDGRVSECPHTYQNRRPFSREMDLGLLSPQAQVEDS

[12] = tested on: Liver microsomes; test: Metabolic stability in human liver microsomes assessed as metabolic rate per mg of protein at 3 uM; format: ADME, Microsome
[13] = target: Insulin-like growth factor 1 receptor (Homo sapiens, UniProt P08069); test: Inhibition of IGF1R
Sequence of Insulin-like growth factor 1 receptor (P08069 31-736 limits assumed): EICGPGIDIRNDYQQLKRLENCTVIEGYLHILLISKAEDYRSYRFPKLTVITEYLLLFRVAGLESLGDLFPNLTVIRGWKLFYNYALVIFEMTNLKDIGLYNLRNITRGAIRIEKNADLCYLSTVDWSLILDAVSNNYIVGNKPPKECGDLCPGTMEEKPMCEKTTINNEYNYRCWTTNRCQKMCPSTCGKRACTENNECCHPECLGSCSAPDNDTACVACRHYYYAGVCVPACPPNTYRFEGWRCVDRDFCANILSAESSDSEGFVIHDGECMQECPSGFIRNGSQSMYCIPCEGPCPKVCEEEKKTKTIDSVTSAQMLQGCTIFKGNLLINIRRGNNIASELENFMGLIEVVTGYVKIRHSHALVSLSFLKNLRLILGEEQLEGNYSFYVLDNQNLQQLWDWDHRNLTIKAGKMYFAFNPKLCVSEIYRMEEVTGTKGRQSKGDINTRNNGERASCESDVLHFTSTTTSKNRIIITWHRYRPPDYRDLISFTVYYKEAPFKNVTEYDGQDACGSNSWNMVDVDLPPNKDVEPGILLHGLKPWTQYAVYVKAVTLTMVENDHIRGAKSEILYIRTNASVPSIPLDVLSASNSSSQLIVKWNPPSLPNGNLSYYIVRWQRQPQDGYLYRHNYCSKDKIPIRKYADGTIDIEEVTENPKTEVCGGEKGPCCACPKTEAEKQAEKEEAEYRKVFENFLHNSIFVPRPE
Sequence of Insulin-like growth factor 1 receptor (P08069 741-1367 limits assumed): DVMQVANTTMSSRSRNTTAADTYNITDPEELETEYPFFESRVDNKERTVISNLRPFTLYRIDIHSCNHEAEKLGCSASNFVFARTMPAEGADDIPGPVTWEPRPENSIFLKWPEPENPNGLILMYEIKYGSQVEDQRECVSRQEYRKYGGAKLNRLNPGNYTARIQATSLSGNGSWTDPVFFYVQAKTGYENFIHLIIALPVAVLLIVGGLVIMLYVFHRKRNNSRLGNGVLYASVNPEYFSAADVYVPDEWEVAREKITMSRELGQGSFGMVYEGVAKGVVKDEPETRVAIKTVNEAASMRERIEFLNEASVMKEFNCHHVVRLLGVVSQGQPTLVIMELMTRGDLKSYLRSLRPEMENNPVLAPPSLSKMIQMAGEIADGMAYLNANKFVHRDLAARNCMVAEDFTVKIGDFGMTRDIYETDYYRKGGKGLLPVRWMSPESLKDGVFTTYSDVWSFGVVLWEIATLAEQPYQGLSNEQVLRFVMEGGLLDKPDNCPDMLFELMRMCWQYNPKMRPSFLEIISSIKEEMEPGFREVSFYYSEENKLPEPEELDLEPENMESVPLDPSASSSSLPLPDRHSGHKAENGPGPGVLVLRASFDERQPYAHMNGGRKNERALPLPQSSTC

[14] = Antitumor activity against human GTL16 cells xenografted BALB/c mouse assessed as at 12.5 mg/kg, po qd administered 14 days after tumor implantation; conditions: GTL 16, po, 336 h, read-out: TGI
[15] = Volume of distribution at steady state in BALB/c mouse at 5 mg/kg, iv; format: ADME, organism-based; parameters: dose 5 mg/kg, route intravenous; conditions: in vivo, read-out: Vdss
[16] = AUC (0 to 24 hrs) in BALB/c mouse at 5 mg/kg, iv; format: ADME, organism-based; parameters: time < 24 hr, dose 5 mg/kg, route intravenous; conditions: plasma
[17] = Metabolic stability in mouse liver microsomes assessed as metabolic rate per mg of protein at 3 uM; format: ADME, Microsome
[18] = Cmax in BALB/c mouse at 10 mg/kg, po; format: ADME, organism-based; parameters: dose 10 mg/kg, route oral; conditions: in vivo
[19] = target: MAP kinase-activated protein kinase 2 (Homo sapiens, UniProt P49137); test: Inhibition of MK2
[20] = Antitumor activity against human GTL16 cells xenografted po dosed BALB/c mouse administered once daily 14 days after tumor implantation; format: functional; conditions: GTL 16, po, 336 h, read-out: MED
[21] = tested on: Serum; test: Protein binding in human serum at 10 uM by equilibrium dialysis method; format: ADME, cell-free
[22] = tested on: Serum; test: Protein binding in mouse serum at 10 uM by equilibrium dialysis method; format: ADME, cell-free
[23] = Antitumor activity against human GTL16 cells xenografted BALB/c mouse assessed as induction of complete tumor stasis at 25 mg/kg, po qd administered 14 days after tumor implantation; format: functional; conditions: GTL 16, 336 h, read-out: TGI
[24] = Antitumor activity against human GTL16 cells xenografted BALB/c mouse assessed as induction of tumor regression at 50 mg/kg, po qd administered 14 days after tumor implantation; format: functional; conditions: GTL 16, 336 h, read-out: TGI
[25] = Tmax in BALB/c mouse at 10 mg/kg, po; format: ADME, organism-based; parameters: dose 10 mg/kg, route oral; conditions: in vivo
[26] = Mean residence time in BALB/c mouse at 10 mg/kg, po; format: ADME, organism-based; parameters: dose 10 mg/kg, route oral; conditions: in vivo
[27] = Half life in BALB/c mouse at 5 mg/kg, iv; format: ADME, organism-based; parameters: dose 5 mg/kg, route intravenous; conditions: in vivo
[28] = Mean residence time in BALB/c mouse at 5 mg/kg, iv; format: ADME, organism-based; parameters: dose 5 mg/kg, route intravenous; conditions: in vivo
[29] = target: Tyrosine-protein kinase Lck (Homo sapiens, UniProt P06239)
[30] = Oral bioavailability in BALB/c mouse at 10 mg/kg, po; format: ADME, organism-based; conditions: in vivo
[31] = target: Vascular endothelial growth factor receptor 2 (Homo sapiens, UniProt P35968); test: Inhibition of VEGFR2
[32] = Clearance in BALB/c mouse at 5 mg/kg, iv; format: ADME, organism-based; parameters: dose 5 mg/kg, route intravenous; conditions: in vivo
[33] = Inhibition of PKA

Q: Which IC50 [1] does the source give for `O=C(Nc1ccc(Oc2ccnc3[nH]ccc23)c(F)c1)c1cccn(Cc2ccc(F)cc2)c1=O` here?
A: > 5000 nM

Q: And the IC50 [2]?
A: 8.2 nM

Q: What about the IC50 [3] of the same compound?
A: 2100 nM

Q: For `CC(C)(C)n1cccc(C(=O)Nc2ccc(Oc3ccnc4[nH]ccc34)c(F)c2)c1=O`, which IC50 [2] is on record?
A: 1000 nM

Q: With `O=C(Nc1ccc(Oc2ccnc3[nH]ccc23)c(F)c1)c1cccn(-c2ccccc2)c1=O` as the compound, how does the IC50 [1] read?
A: > 5000 nM

Q: And the IC50 [2]?
A: 1.9 nM

Q: What about the IC50 [3] of the same compound?
A: 140 nM

Q: For `O=C(Nc1ccc(Oc2ccnc3[nH]ccc23)c(F)c1)c1cccc(-c2ccccc2)[n+]1[O-]`, which IC50 [1] is on record?
A: > 5000 nM

Q: And the IC50 [2]?
A: 1.3 nM

Q: And the IC50 [3]?
A: 40 nM

Q: With `COc1ccc(-n2cc(C(=O)Nc3ccc(Oc4ccnc5[nH]ccc45)c(F)c3)c(=O)c(-c3ccc(F)cc3)c2)cc1F` as the compound, how does the IC50 [1] read?
A: > 5000 nM

Q: What about the IC50 [2] of the same compound?
A: 5 nM

Q: What about the IC50 [3] of the same compound?
A: 200 nM

Q: Which results are given for `O=C(Nc1ccc(Oc2ccnc3[nH]ccc23)c(F)c1)c1cn(-c2ccc(Cl)c(F)c2)cc(-c2ccc(F)cc2)c1=O`?
A: IC50 [1]: > 5000 nM; IC50 [2]: 2.3 nM; IC50 [3]: 130 nM

Q: For `Cn1cc(C(=O)Nc2ccc(Oc3ccnc4[nH]ccc34)c(F)c2)c(=O)c(-c2ccc(F)cc2)c1`, which IC50 [1] is on record?
A: 2620 nM

Q: And the IC50 [2]?
A: 3.1 nM

Q: And the IC50 [3]?
A: 150 nM

Q: For `O=C(Nc1ccc(Oc2ccnc3[nH]ccc23)c(F)c1)c1cocc(-c2ccc(F)cc2)c1=O`, which IC50 [2] is on record?
A: 1400 nM

Q: What about the IC50 [3] of the same compound?
A: > 10000 nM

Q: Which results are given for `O=C(Nc1ccc(Oc2ccnc3[nH]ccc23)c(F)c1)c1cccn(-c2ccccn2)c1=O`?
A: IC50 [1]: > 5000 nM; IC50 [2]: 10 nM; IC50 [3]: 970 nM

Q: Which IC50 [1] does the source give for `O=C(Nc1ccc(Oc2ccnc3[nH]ccc23)c(F)c1)c1cn(C2CC2)cc(-c2ccc(F)cc2)c1=O` here?
A: > 5000 nM

Q: And the IC50 [2]?
A: 3.4 nM

Q: And the IC50 [3]?
A: 60 nM

Q: For `O=C(Nc1ccc(Oc2ccnc3[nH]ccc23)c(F)c1)c1cccn(-c2ccc(F)cc2)c1=O`, which IC50 [1] is on record?
A: > 5000 nM

Q: What about the MTD at 336 h [4] of the same compound?
A: 100 mg/kg

Q: And the AUC(0-t) at 24 h [5]?
A: 50.2 µM·h

Q: And the IC50 [6]?
A: > 1000 nM

Q: And the half-life [7]?
A: 2.2 h

Q: And the IC50 [8]?
A: > 5000 nM

Q: And the IC50 [9]?
A: > 30000 nM

Q: And the IC50 [10]?
A: 610 nM

Q: What about the IC50 [11] of the same compound?
A: 4 nM

Q: What about the Stability [12] of the same compound?
A: < 0.01 nM/min/mg

Q: What about the IC50 [13] of the same compound?
A: > 5000 nM

Q: And the inhibition in vivo at 12.5 mg/kg [14]?
A: 62%

Q: What about the Vd [15] of the same compound?
A: 1.6 L/kg

Q: What about the AUC(0-t) at 24 h [16] of the same compound?
A: 19.8 µM·h

Q: And the Stability [17]?
A: 0.055 nM/min/mg

Q: And the Cmax [18]?
A: 11.5 µM

Q: And the IC50 [19]?
A: > 10000 nM

Q: And the minimal effective dose [20]?
A: 12.5 mg/kg

Q: What about the Activity [21] of the same compound?
A: 99.9%

Q: What about the Activity [22] of the same compound?
A: 99.4%

Q: What about the inhibition in vivo at 25 mg/kg [23] of the same compound?
A: 86%

Q: What about the inhibition in vivo at 50 mg/kg [24] of the same compound?
A: 110%

Q: And the Tmax [25]?
A: 0.5 h

Q: What about the MRT [26] of the same compound?
A: 4.5 h

Q: And the half-life [27]?
A: 2.5 h

Q: And the MRT [28]?
A: 3 h

Q: And the IC50 [29]?
A: 290 nM

Q: And the bioavailability [30]?
A: 100%

Q: What about the IC50 [31] of the same compound?
A: 27 nM

Q: And the clearance [32]?
A: 9.2 mL/min/kg

Q: What about the IC50 [33] of the same compound?
A: > 30000 nM

Q: What does the source list for `CC(C)CCn1cccc(C(=O)Nc2ccc(Oc3ccnc4[nH]ccc34)c(F)c2)c1=O`?
A: IC50 [1]: > 5000 nM; IC50 [2]: 30 nM; IC50 [3]: 3700 nM

Q: With `O=C(Nc1ccc(Oc2ccnc3[nH]ccc23)c(F)c1)c1cccc(-c2ccc(F)cc2)[n+]1[O-]` as the compound, how does the IC50 [1] read?
A: 4900 nM

Q: And the IC50 [2]?
A: 1.8 nM

Q: What about the IC50 [3] of the same compound?
A: 40 nM

Q: Which results are given for `O=C(Nc1ccc(Oc2ccnc3[nH]ccc23)c(F)c1)c1cn(CCO)cc(-c2ccc(F)cc2)c1=O`?
A: IC50 [1]: > 5000 nM; IC50 [2]: 3.8 nM; IC50 [3]: 280 nM

Q: For `O=C(Nc1ccc(Oc2ccnc3[nH]ccc23)c(F)c1)c1cccn(-c2cccnc2)c1=O`, which IC50 [1] is on record?
A: > 5000 nM

Q: What about the IC50 [2] of the same compound?
A: 70 nM

Q: And the IC50 [3]?
A: 4000 nM

Q: Which IC50 [2] does the source give for `O=C(Nc1ccc(Oc2ccnc3[nH]ccc23)c(F)c1)c1cccc(-c2ccccc2)n1` here?
A: 470 nM

Q: With `NC(=O)c1ccc(-n2cccc(C(=O)Nc3ccc(Oc4ccnc5[nH]ccc45)c(F)c3)c2=O)cc1` as the compound, how does the IC50 [2] read?
A: 1000 nM

Q: And the IC50 [3]?
A: > 5000 nM

Q: With `O=C(Nc1ccc(Oc2ccnc3[nH]ccc23)c(F)c1)c1cncc(-c2ccc(F)cc2)c1O` as the compound, how does the IC50 [1] read?
A: 1240 nM

Q: And the IC50 [2]?
A: 2.8 nM

Q: What about the IC50 [3] of the same compound?
A: 70 nM

Q: For `O=C(Nc1ccc(Oc2ccnc3[nH]ccc23)c(F)c1)c1cccn(C2CC2)c1=O`, which IC50 [2] is on record?
A: 1000 nM
